Counter-ions that a name gives are not always drawn. ± gives the standard deviation of the averaged measurements.
Assays:
[1] = test system: CHO-K1; assay: benchmark concentration for 30% increase in micronucleus frequency (BMC30); higher = less potent clastogen
Protocol: (§1)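 Benchmark concentration modelling (PROAST, Hill/exponential model families) of the 19-concentration flow-cytometric micronucleus assay in CHO-K1 cells, with and without rat liver S9. Only non-cytotoxic and adequate (relative survival >=40%) concentrations were used. BMR was a 30% increase in %MN (BMC30) or a 60% increase in %hypodiploid (BMC60) over control.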

[2] = test system: CHO-K1; assay: benchmark concentration for 60% increase in hypodiploid frequency (BMC60); higher = less potent aneugen
Protocol: as §1

[3] = S9 metabolic activation: without S9
[4] = S9 metabolic activation: with S9

| Compound | benchmark concentration [1, 3] [µM] | benchmark concentration [2, 3] [µM] | benchmark concentration [1, 4] [µM] | benchmark concentration [2, 4] [µM] |
| --- | --- | --- | --- | --- |
| CC(C)(c1ccc(O)cc1)c1ccc(O)cc1 [Bisphenol A] | 71 | 48 |  |  |
| NS(=O)(=O)c1cc2c(cc1Cl)NCNS2(=O)=O [Hydrochlorothiazide] |  | 73 | 29 |  |
| CC(C)(OO)c1ccccc1 [Cumene hydroperoxide] | 56 | 63 |  |  |
| CN(C)CCCN1c2ccccc2Sc2ccc(Cl)cc21 [Chlorpromazine hydrochloride] | 23 |  |  |  |
| COC(=O)NC(=S)Nc1ccccc1NC(=S)NC(=O)OC [Thiophanate-methyl] | 16.7 ± 4.2 | 20.5 ± 3.5 |  |  |
| O=P1(N(CCCl)CCCl)NCCCO1 (stereo not given) [Cyclophosphamide monohydrate] | 91 |  |  |  |
| O=CCCCC=O [Glutaraldehyde] | 28 |  |  |  |
| Cc1ccc(O)c(C)c1 [2,4-Dimethylphenol] | 79 |  |  |  |
| ClC1=C(Cl)[C@]2(Cl)[C@@H]3[C@@H]4C[C@@H]([C@H]5O[C@@H]45)[C@@H]3[C@@]1(Cl)C2(Cl)Cl [Dieldrin] | 74 | 90 |  |  |
| N#CC(Br)Br [Dibromoacetonitrile] | 32 | 15 |  |  |
| COc1ccccc1N [2-Anisidine] | 46 | 120 |  |  |
| COCCOCCOC [Bis(2-methoxyethyl) ether] |  |  | 72 |  |
| NNC(=O)c1ccncc1 [Isoniazid] |  | 51 | 21 |  |
| Oc1ccc(O)cc1 [Hydroquinone] |  |  | 63 | 90 |
| NC(=O)N/N=C/c1ccc([N+](=O)[O-])o1 [Nitrofurazone] | 24 | 68 |  |  |
| Cc1ccc(O)cc1 [p-Cresol] | 73 | 79 |  |  |
| C=CC(N)=O [Acrylamide] |  |  | 47 |  |
| O=C(O)c1cc(/N=N/c2ccc(S(=O)(=O)Nc3ccccn3)cc2)ccc1O [Sulfasalazine] | 65 |  |  |  |
| Cc1cccc(C)c1O [2,6-Dimethylphenol] | 87 | 110 |  |  |
| O=C1OC(c2ccc(O)cc2)(c2ccc(O)cc2)c2ccccc21 [Phenolphthalein] | 22 |  |  |  |
| O=C(CCl)c1ccccc1 [2-Chloroacetophenone] |  |  | 60 | 62 |

| Compound | benchmark concentration [1, 3] [µM] | benchmark concentration [2, 3] [µM] | benchmark concentration [1, 4] [µM] | benchmark concentration [2, 4] [µM] |
| --- | --- | --- | --- | --- |
| CCCOC(=O)c1cc(O)c(O)c(O)c1 [Propyl gallate] | 17 |  | 24 |  |
| O=C(O)C1=NN(c2ccc(S(=O)(=O)O)cc2)C(=O)C1N=Nc1ccc(S(=O)(=O)O)cc1 (stereo not given) [FD&C Yellow 5] | 25 | 47 | 15 |  |
| CC(C)(C)c1cc(O)ccc1O [tert-Butylhydroquinone] |  |  | 22 | 23 |
| Nc1nc(=S)c2[nH]cnc2[nH]1 [6-Thioguanine] | < 4.5 |  | 33 | 74 |
| O=C1NC(=O)C(c2ccccc2)(c2ccccc2)N1 [5,5-Diphenylhydantoin] | 13 | 17 |  |  |
| COC(=O)c1ccccc1O [Methyl salicylate] | 15 | 67 | 58 |  |
| CCOC(=O)C(O)(c1ccc(Cl)cc1)c1ccc(Cl)cc1 [Chlorobenzilate] | 47 |  |  |  |
| C#C[C@]1(O)CC[C@H]2[C@@H]3CCc4cc(O)ccc4[C@H]3CC[C@@]21C [17alpha-Ethinylestradiol] |  | < 4.5 | 58 |  |
| CCCCc1oc2ccccc2c1C(=O)c1cc(I)c(OCCN(CC)CC)c(I)c1 [Amiodarone hydrochloride] |  |  | 16 | 11 |
| O=c1n(CC2CO2)c(=O)n(CC2CO2)c(=O)n1CC1CO1 (stereo not given) [Triglycidyl isocyanurate] | < 4.5 | 25 | < 4.5 | 53 |
| CN(Cc1cnc2nc(N)nc(N)c2n1)c1ccc(C(=O)N[C@@H](CCC(=O)O)C(=O)O)cc1 [Methotrexate] | 51 | 59 |  |  |
| Cc1ccc(O)cc1C [3,4-Dimethylphenol] | 120 | 74 |  |  |
| Cc1cccc2ccccc12 [1-Methylnaphthalene] | 57 | 110 |  |  |
| Nc1cccc2c(N)cccc12 [1,5-Naphthalenediamine] |  | 66 | 8.6 |  |
| ClC1=C(Cl)C(Cl)(Cl)C(Cl)=C1Cl [Hexachlorocyclopentadiene] | < 4.5 |  | 23 |  |
| OCC1CO1 (stereo not given) [Glycidol] | 99 |  |  |  |
| CS(=O)(=O)OCCCCOS(C)(=O)=O [Busulfan] | 19 |  |  |  |
| c1ccc2c(c1)oc1ccccc12 [Dibenzofuran] |  |  | 33 |  |
| CCCOC(=O)c1ccc(O)cc1 [Propylparaben] |  |  | 37 |  |
| Nc1ccc(Cl)cc1N [4-Chloro-1,2-diaminobenzene] | 41 |  |  |  |
| CC(=O)N1CCN(c2ccc(OCC3COC(Cn4ccnc4)(c4ccc(Cl)cc4Cl)O3)cc2)CC1 (stereo not given) [Ketoconazole] |  |  | 54 |  |

| Compound | benchmark concentration [1, 3] [µM] | benchmark concentration [2, 3] [µM] | benchmark concentration [1, 4] [µM] | benchmark concentration [2, 4] [µM] |
| --- | --- | --- | --- | --- |
| CCOC(N)=O [Urethane] |  |  | 32 |  |
| CCOCN(C(=O)CCl)c1c(C)cccc1CC [Acetochlor] | 39 |  | 79 |  |
| OCCOCCO [Diethylene glycol] | 79 |  |  |  |
| O=C(c1ccc(OCCN2CCCCC2)cc1)c1c(-c2ccc(O)cc2)sc2cc(O)ccc12 [Raloxifene hydrochloride] | 28 |  | 70 |  |
| O=c1[nH]cnc2c1ncn2[C@H]1CC[C@@H](CO)O1 [2',3'-Dideoxyinosine] | 84 |  |  |  |
| CCCCCCCCCCCCCCCS(=O)(=O)Oc1ccccc1 [C10-21 sulfonic acids phenyl esters] | 130 |  |  |  |
| O=S(=O)(O)C(F)(F)C(F)(F)C(F)(F)C(F)(F)C(F)(F)C(F)(F)C(F)(F)C(F)(F)F [PFOS] | 18 |  |  |  |
| O=c1[nH]sc2ccccc12 [1,2-Benzisothiazolin-3-one] |  |  | 32 |  |
| CCCCC(CC)COC(=O)CCCCC(=O)OCC(CC)CCCC (stereo not given) [Di(2-ethylhexyl) adipate] | 76 |  |  |  |
| Oc1cc(Cl)ccc1Oc1ccc(Cl)cc1Cl [Triclosan] |  |  | 40 |  |
| O=P(OCCCl)(OCCCl)OCCCl [Tris(2-chloroethyl) phosphate] |  | 150 |  |  |
| O=Cc1ccco1 [Furfural] | 130 |  |  |  |
| c1ccc2n[nH]nc2c1 [1,2,3-Benzotriazole] |  | 93 |  |  |
| O=C1C2(Cl)C3(Cl)C4(Cl)C(Cl)(Cl)C5(Cl)C3(Cl)C1(Cl)C5(Cl)C24Cl (stereo not given) [Kepone] | 30 |  | 53 |  |
| Clc1cc(Cl)c(Cl)cc1Cl [1,2,4,5-Tetrachlorobenzene] |  | 110 |  |  |
| C[C@@H]1C[C@@H]([C@H](O)CC2CC(=O)NC(=O)C2)C(=O)[C@@H](C)C1 [Cycloheximide] |  |  | < 4.5 |  |
| O=c1c(O)c(-c2ccc(O)c(O)c2)oc2cc(O)cc(O)c12 [Quercetin] |  | 110 |  |  |
| CCCN(CCC)N=O [N-Nitrosodipropylamine] |  |  | 20 |  |
| Oc1cccc2cccnc12 [8-Hydroxyquinoline] | 26 |  | 16 |  |
| C1CC2OC2CC1C1CO1 (stereo not given) [4-Vinyl-1-cyclohexene dioxide] |  | 35 |  |  |
| CC(C)=CCCC(C)CCO (stereo not given) [Citronellol] |  | 72 |  |  |

| Compound | benchmark concentration [1, 3] [µM] | benchmark concentration [2, 3] [µM] | benchmark concentration [1, 4] [µM] | benchmark concentration [2, 4] [µM] |
| --- | --- | --- | --- | --- |
| CC(C)(OOC(C)(C)c1ccccc1)c1ccccc1 [Dicumyl peroxide] | 5.5 |  | 88 |  |
| Cc1ccccc1O [o-Cresol] |  | 130 |  |  |
| Cc1ccc(N(C)C)cc1 [N,N,4-Trimethylaniline] |  | 39 |  |  |
| Nc1ccccc1N [1,2-Phenylenediamine] |  | 47 |  |  |
| CC(N)=O [Acetamide] | 5.8 |  |  |  |
| CCCCCCCCn1sccc1=O [Octhilinone] | < 4.5 |  |  |  |
| O=c1c(-c2ccc(O)cc2)coc2cc(O)cc(O)c12 [Genistein] | 10 |  |  |  |
| COC(=O)CCCCC(=O)OC [Dimethyl adipate] |  | 110 |  |  |
| CCOC(=O)c1ccc(O)cc1 [Ethylparaben] | 70 |  |  |  |
| Cc1ccc(N)c(N)c1 [3,4-Diaminotoluene] |  | 52 |  |  |
| CC(C)C(=O)OCC(C)(C)C(OC(=O)C(C)C)C(C)C (stereo not given) [2,2,4-Trimethyl-1,3-pentanediol diisobutyrate] |  | 190 |  |  |
| O=C(O)c1ccccc1 [Benzoic acid] |  | 110 |  |  |
| CC(C)=CCC/C(C)=C/C=O [3,7-Dimethyl-2,6-octadienal] |  | 28 |  |  |
| CCC(C)c1cc([N+](=O)[O-])cc([N+](=O)[O-])c1O (stereo not given) [Dinoseb] | 49 |  |  |  |
| OC(CCl)CCl [1,3-Dichloro-2-propanol] |  | 75 |  |  |
| CCCCOCCOCCO [2-(2-Butoxyethoxy)ethanol] |  | 100 |  |  |
| CC(C)C(=O)Nc1ccc([N+](=O)[O-])c(C(F)(F)F)c1 [Flutamide] |  | 17 |  |  |
| CCOc1ccc2c(c1)C(C)=CC(C)(C)N2 [Ethoxyquin] | 55 |  | 86 |  |
| O=[N+]([O-])c1ccc(Oc2ccc(Cl)cc2Cl)cc1 [Nitrofen] | 77 |  |  |  |
